The source of these data is PubChem BioAssay (NCI).

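Where inhibition never reached the appropriate level, the endpoint shown equals the highest concentration tested. Otherwise, values were interpolated linearly from a five-concentration, 48-hour dose response in 96-well plates. TGI: total growth inhibition.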

What all share (test): growth of human tumour cells (NCI), 48 h
Assay [1] deals with SNB-19 CNS.
In assay [2] the test system is MOLT-4 leukemia.
The test system of assay [3] is OVCAR-8 ovarian.
For assay [4], the system named is IGROV1 ovarian.
For assay [5], the system named is SF-295 CNS.
Assay [6] concerns UACC-62 melanoma.
The test system of assay [7] is CAKI-1 renal.
In assay [8] the test system is SN12C renal.
The subject of assay [9] is NCI/ADR-RES ovarian.
For assay [10], the system named is SF-539 CNS.
In assay [11] the test system is HT29 colon.
Assay [12] deals with HCT-15 colon.
The test system of assay [13] is EKVX NSCLC.
In assay [14] the test system is RXF 393 renal.
In assay [15] the test system is HOP-62 NSCLC.
Assay [16] deals with LOX IMVI melanoma.
The subject of assay [17] is COLO 205 colon.
The subject of assay [18] is OVCAR-5 ovarian.
Assay [19] concerns ACHN renal.
Assay [20] relates to M14 melanoma.

With `NCCCCCC(CCN)SCC1OC(n2cnc3c(N)ncnc32)C(O)C1O` (stereo not given), the TGI in [1], in assay [2], in [3], in [4], in assay [5] and in [6] was over 1500 µM in each case. Besides, the TGI in [7] was 1270 µM; in [8], over 1180 µM; in assay [9], over 1500 µM; in assay [10] it was over 1240 µM; in assay [11] it was over 1500 µM; in assay [12], over 1500 µM. In addition, the TGI in assay [13], in assay [14], in assay [15], in [16], in [17] and in [18] was over 1500 µM in each case.

Take `COC(=O)/C=C1\SC2(OC1=Nc1ccccc1)C1CC3CC(C1)CC2C3` (stereo not given): the TGI in assay [1], in assay [2], in [3], in assay [4], in assay [5] and in assay [6] was over 100 µM throughout. Moreover, the TGI in assay [7], in assay [8], in [9], in assay [10], in [11] and in assay [12] was over 100 µM throughout. Also, the TGI in assay [13], in [14], in assay [15], in [16], in assay [19] and in assay [18] was over 100 µM each time.

As for `O=C(O)C(Cc1cc(I)c(O)c(I)c1)C1CCCCC1` (stereo not given), the TGI in [1] is over 100 µM; in [2], 76.2 µM; in assay [3], over 100 µM; in assay [20], over 100 µM; in assay [4], over 100 µM; in assay [5] it was over 100 µM. The TGI in assay [6] is over 100 µM; in [7], over 100 µM; in [8], over 100 µM; in assay [9], over 100 µM; in assay [11], 98.3 µM; in [12] it was over 100 µM. The TGI in [13], in [14], in [15], in assay [16], in [19] and in assay [18] was over 100 µM each time.

Turning to `CCOc1ccc(/C=C2\N=C(c3ccccc3)OC2=O)cc1`, the TGI in assay [1], in [2], in [3], in assay [20], in assay [4] and in assay [5] was over 100 µM throughout. Also, the TGI in [6], in assay [9], in assay [10], in [11], in [12] and in assay [13] was over 100 µM in each case. Moreover, the TGI in assay [14], in assay [15], in assay [19] and in [18] was over 100 µM in each case.

`O=C1c2cc(Br)ccc2-c2ccc3c4ccc5c6c(ccc(c7ccc1c2c73)c64)C(=O)c1cc(Br)ccc1-5`: the TGI in assay [1], in assay [3], in [20], in assay [4], in [6] and in assay [7] was over 100 µM throughout. The TGI in assay [8], in [9], in assay [10], in assay [11], in assay [12] and in [13] was over 100 µM throughout. Also, the TGI in assay [14], in [15], in [16], in assay [17], in [19] and in assay [18] was over 100 µM each time.

With `CN1C2CCC1/C(=C/c1cccc3c1OCO3)C(=O)/C2=C\c1cccc2c1OCO2`, the TGI in assay [2] is over 100 µM; in assay [3], over 100 µM; in assay [20], over 100 µM; in assay [4] it was over 100 µM; in assay [5], 84.6 µM; in assay [6], 91.4 µM. Besides, the TGI in [8] is over 100 µM; in assay [11], over 100 µM; in assay [12] it was over 100 µM; in assay [13] it was over 100 µM; in assay [14], 68 µM; in [15], 41.2 µM. Further, the TGI in [16], in assay [17], in [19] and in assay [18] was over 100 µM each time.

Turning to `CC(=O)CCC#Cc1ccccc1C(=O)C(C)=[N+]=[N-]`, the TGI in assay [1] was over 100 µM; in assay [2], 85.4 µM; in assay [3] it was over 100 µM; in assay [20] it was over 100 µM; in assay [4], over 100 µM; in [5], over 100 µM. Further, the TGI was 38.7 µM in [6]; over 100 µM in assay [8]; over 100 µM in [10]; over 100 µM in [11]; over 100 µM in assay [12]; over 100 µM in assay [13]. Also, the TGI was 97.5 µM in assay [14]; over 100 µM in assay [15]; over 100 µM in assay [16]; 39.6 µM in [17]; over 100 µM in [19]; over 100 µM in assay [18].

`CC(C)(C)[Si](C)(C)OCC1OC(n2cnc3c(N)ncnc32)C2OC(=S)OC12` (stereo not given): the TGI is over 100 µM in assay [1]; 69.3 µM in assay [2]; over 100 µM in assay [3]; over 100 µM in assay [20]; over 100 µM in assay [4]; over 100 µM in assay [5]. Moreover, the TGI was 77.8 µM in assay [6]; over 100 µM in assay [7]; over 100 µM in [8]; 81.2 µM in assay [9]; over 100 µM in [11]; over 100 µM in assay [12]. Besides, the TGI was over 100 µM in [14]; over 100 µM in assay [15]; over 100 µM in assay [16]; over 100 µM in assay [17]; 86.6 µM in assay [18].

`COc1ccc(-c2cc(N3CCN(c4ccc(Cl)cc4)CC3)c(C#N)c(=O)o2)cc1`: the TGI was 23.8 µM in assay [1]; 19.1 µM in assay [3]; over 100 µM in [20]; 42.4 µM in assay [4]; 16.4 µM in [5]; 34.2 µM in [7]. Also, the TGI was over 100 µM in [8]; 14.6 µM in assay [10]; over 100 µM in assay [11]; over 100 µM in [12]; 41.7 µM in assay [13]; 17.3 µM in [14]. Further, the TGI in [16] was over 100 µM; in [17] it was over 100 µM; in assay [19], 35.2 µM; in [18], over 100 µM.
